Source: patent US11332464B2, “Inhibitors of lysine gingipain” (priority 2014, dated 2022)
Values joined by “and” are separate entries in the source; they are usually repeats but may differ in a detail not shown here. Equal entries are not always repeated. “Also recorded” adds a separate entry of the source. Where two headings read alike, the source gives them in different places.

Legend:
[1] = molecular target: Kgp (Porphyromonas gingivalis, UniProt P72197); test: Lysine gingipain (Kgp) fluorogenic inhibition assay; type: biochemical
Protocol: The capacities of compounds of the present invention to inhibit the activity of lysine gingipain were measured in a fluorogenic assay similar to those described in Barret Biochemical Journal. 1980, 187(3), 909. The specific assay conditions were as follows. Buffer: pH=7.5, 100 mM Tris-HCl, 75 mM NaCl, 2.5 mM CaCl2, 10 mM cysteine, 1% DMSO after all additions. Protein: 0.1 nM Kgp, isolated from culture of Porphyromonas gingivalis, as described in Pike et al. J. Biol. Chem. 1994, 269(1), 406, and Potempa and Nguyen. Current Protocols in Protein Science. 2007, 21.20.1-21.20.27. Fluorogenic substrate: 10 uM Z-His-Glu-Lys-MCA. Time=90 minutes. Temperature=37° C. Each compound: 10 concentrations, starting at either 100 uM or 100 nM, with lower concentrations generated by serial 3-fold dilutions. By testing a range of concentrations for each compound, the concentration required to inhibit the activity of lysine gingipain by 50% (the “IC50”) was determined. Under the described assay conditions, signal-to-noise was excellent, and Z factor was greater than 0.6.

[2] = system: SHSY5Y cells; test: P. gingivalis-induced toxicity in SHSY5Y cells; type: cell-based; settings: in vitro, compared to moxifloxacin
[3] = system: differentiated SH-SY5Y neuroblastoma cells; test: Gingipain-induced death of differentiated SH-SY5Y cells; type: cell-based; settings: 100 nM Kgp and/or RgpB for 24 hours
Protocol: SH-SY5Y neuroblastoma cells were cultured and differentiated in the presence of 5 uM retinoic acid based on established methods [Saberi S., et al. Cell Mol Neurobiol 2013. 33: 747-751]. Differentiation into neuronal cells was verified by observation of neurite outgrowth. The differentiated cells were exposed to 100 nM Kgp and/or RgpB for 24 hours, in the presence or absence of Kgp inhibitors. Results were recorded using a digital microscope camera (FIG. 1C, FIG. 2C). Gingipains are toxic to cells while COR compounds prevent the cytotoxicity.

[4] = Kgp IC50 average, 0.1 nM Kgp, 10 uM Z-His-Glu-Lys-MCA, 90 minutes, 37° C.
[5] = read-out: Kgp IC50 average, 0.1 nM Kgp, 10 uM Z-His-Glu-Lys-MCA, 90 minutes, 37° C.

Structure (SMILES) | IC50 [1, 4] | further results
NCCCC[C@H](NC(=O)C1CCCC1)C(=O)COc1c(F)c(F)cc(F)c1F [Compound 43, N-[(1S)-5-amino-1-[2-(2,3,5,6-tetrafluorophenoxy)acetyl]pentyl]cyclo-pentanecarboxamide] | < 1 nM | Kgp IC50 (in words) ([1]; irreversible covalent inhibitor): sub-nanomolar; protection of SHSY5Y cells from P. gingivalis-induced toxicity [2]: protects SHSY5Y cells
NCCCC[C@H](NC(=O)c1cccc(=O)[nH]1)C(=O)c1nc2ccccc2s1 [Compound 40, N-[(1S)-5-amino-1-(1,3-benzothiazole-2-carbonyl)pentyl]-6-oxo-1H-pyridine-2-carboxamide] | 25 to 50 nM | –
NCCCC[C@H](NC(=O)C1CCCO1)C(=O)c1nc2ccccc2s1 (single isomer, unassigned) [Compound 35] | – | IC50 [1, 5]: 1 to 10 nM
COC1(C(=O)N[C@@H](CCCCN)C(=O)c2nc3ccccc3s2)CCCCC1 [Compound 41, (S)—N-(6-amino-1-(benzo[d]thiazol-2-yl)-1-oxohexan-2-yl)-1-methoxycyclohexanecarboxamide] | 10 to 25 nM | –
NCCCCC(NC(=O)[C@@H]1CCCN(C(=O)CCc2ccccc2)C1)C(=O)c1nc2ccccc2s1 (single isomer, unassigned) [Compound 14] | 1 to 10 nM | –
NCCCC[C@H](NC(=O)c1ccccc1C(F)(F)F)C(=O)c1nc2ccccc2s1 [Compound 7, N-[(1S)-5-amino-1-(1,3-benzothiazole-2-carbonyl)pentyl]-2-(trifluoromethyl)benzamide] | 25 to 50 nM | –
NCCCC[C@H](NC(=O)C1CCCCO1)C(=O)c1nc2ccccc2s1 (single isomer, unassigned) [Compound 25] | 25 to 50 nM | –
CC(=O)N1CCC[C@@H](C(=O)N[C@H](CCCCN)C(=O)c2nc3ccccc3s2)C1 [Compound 11, (3R)-1-acetyl-N-[(1R)-5-amino-1-(1,3-benzothiazole-2-carbonyl)pentyl]piperidine-3-carboxamide] | 1 to 10 nM | –
NCCCC[C@H](NC(=O)C1CCCC1)C(=O)c1nc2ccccc2s1 [Compound 24, N-[(1S)-5-amino-1-(1,3-benzothiazole-2-carbonyl)pentyl]cyclo-pentanecarboxamide] | 1 to 10 nM | –
CC(=O)N1CCC[C@@H](C(=O)N[C@@H](CCCCN)C(=O)c2nc3ccccc3s2)C1 [Compound 9, (3R)-1-acetyl-N-[(1S)-5-amino-1-(1,3-benzothiazole-2-carbonyl)pentyl]piperidine-3-carboxamide] | 1 to 10 nM | –
CC(=O)N1CCC[C@H](C(=O)N[C@H](CCCCN)C(=O)c2nc3ccccc3s2)C1 [Compound 10, (3S)-1-acetyl-N-[(1R)-5-amino-1-(1,3-benzothiazole-2-carbonyl)pentyl]piperidine-3-carboxamide] | 10 to 25 nM | –
NCCCC[C@H](NC(=O)C1CCCC1)C(=O)c1ccccn1 [Compound 44, N-[(1S)-5-amino-1-(pyridine-2-carbonyl)pentyl]cyclopentanecarboxamide] | > 250 nM | –
NCCCC[C@H](NC(=O)C1CCCCO1)C(=O)c1nc2ccccc2s1 (single isomer, unassigned) [Compound 26] | – | IC50 [1, 5]: 25 to 50 nM
NCCCC[C@H](NC(=O)C1CCc2ccccc2C1)C(=O)c1nc2ccccc2s1 (stereo partly drawn) [Compound 32, N-[(1S)-5-amino-1-(1,3-benzothiazole-2-carbonyl)pentyl]tetralin-2-carboxamide] | 1 to 10 nM | –
CC(=O)N1CCOC(C(=O)N[C@@H](CCCCN)C(=O)c2nc3ccccc3s2)C1 (stereo partly drawn) [Compound 29, 4-acetyl-N-[(1S)-5-amino-1-(1,3-benzothiazole-2-carbonyl)pentyl]morpholine-2-carboxamide] | 10 to 25 nM | –
NCCCC[C@H](NC(=O)[C@@H]1CCCN(C(=O)CCc2ccccc2)C1)C(=O)c1nc2ccccc2s1 [Compound 4, (3R)—N-[(1S)-5-amino-1-(1,3-benzothiazole-2-carbonyl)pentyl]-1-(3-phenylpropanoyl)piperidine-3-carboxamide] | 1 to 10 nM | IC50 ([1]; Kgp IC50, figure legend): 1 to 10 nM; prevention of gingipain-induced death of differentiated SHSY-5Y cells [3]: prevents gingipain-induced death; prevention of gingipain-induced death of differentiated SHSY-5Y cells ([3]; listed as 2-(N—[N-(3-phenylpropanoyl)-(R)-nipecotinyl]-(R)-lysinyl)-benzothiazole): effective at preventing cell death
NCCCC[C@H](NC(=O)C1CCCOC1)C(=O)c1nc2ccccc2s1 (single isomer, unassigned) [Compound 18] | 10 to 25 nM | –

Structure (SMILES) | IC50 [1, 4] | further results
NCCCC[C@H](NC(=O)[C@H]1CCCN(C(=O)CCc2ccccc2)C1)C(=O)c1nc2ccccc2s1 [Compound 3, (3S)—N-[(1S)-5-amino-1-(1,3-benzothiazole-2-carbonyl)pentyl]-1-(3-phenylpropanoyl)piperidine-3-carboxamide] | 10 to 25 nM | IC50 ([1]; Kgp IC50, figure legend): 10 to 25 nM; prevention of gingipain-induced death of differentiated SHSY-5Y cells [3]: does not
NCCCCC(NC(=O)[C@@H]1CCCN(C(=O)CCc2ccccc2)C1)C(=O)c1nc2ccccc2s1 (single isomer, unassigned) [Compound 15] | – | IC50 [1, 5]: 1 to 10 nM
NCCCC[C@H](NC(=O)C1CCOCC1)C(=O)c1nc2ccccc2s1 [Compound 22, N-[(1S)-5-amino-1-(1,3-benzothiazole-2-carbonyl)pentyl]tetrahydropyran-4-carboxamide] | 10 to 25 nM | –
NCCCC[C@H](NC(=O)OCc1ccccc1)C(=O)c1nc2ccccc2s1 [Compound 23, Benzyl-N-[(1S)-5-amino-1-(1,3-benzothiazole-2-carbonyl)pentyl]carbamate] | 100 to 250 nM | –
NCCCC[C@H](NC(=O)c1ccccn1)C(=O)c1nc2ccccc2s1 [Compound 12, N-[(1S)-5-amino-1-(1,3-benzothiazole-2-carbonyl)pentyl]pyridine-2-carboxamide] | 50 to 100 nM | –
NCCCC[C@H](NC(=O)c1cncs1)C(=O)c1nc2ccccc2s1 [Compound 38, N-[(1S)-5-amino-1-(1,3-benzothiazole-2-carbonyl)pentyl]thiazole-5-carboxamide] | 10 to 25 nM | –
NCCCC[C@H](NC(=O)C1CCCOC1)C(=O)c1nc2ccccc2s1 (single isomer, unassigned) [Compound 19] | – | IC50 [1, 5]: 10 to 25 nM
NCCCC[C@H](NC(=O)C1CCCO1)C(=O)c1nc2ccccc2s1 (single isomer, unassigned) [Compound 34] | 1 to 10 nM | –
NCCCC[C@H](NC(=O)c1nccs1)C(=O)c1nc2ccccc2s1 [Compound 39, N-[(1S)-5-amino-1-(1,3-benzothiazole-2-carbonyl)pentyl]thiazole-2-carboxamide] | 50 to 100 nM | –
CC1(C(=O)N[C@@H](CCCCN)C(=O)c2nc3ccccc3s2)CCCCC1 [Compound 33, N-[(1S)-5-amino-1-(1,3-benzothiazole-2-carbonyl)pentyl]-1-methyl-cyclohexanecarboxamide] | 1 to 10 nM | –
NCCCC[C@H](NC(=O)c1cccnc1)C(=O)c1nc2ccccc2s1 [Compound 30, N-[(1S)-5-amino-1-(1,3-benzothiazole-2-carbonyl)pentyl]pyridine-3-carboxamide] | 25 to 50 nM | –
NCCCC[C@H](NC(=O)c1ccccc1)C(=O)c1nc2ccccc2s1 [Compound 1, N-[(1S)-5-amino-1-(1,3-benzothiazole-2-carbonyl)pentyl]benzamide] | 50 to 100 nM and 25 to 50 nM | prevention of gingipain-induced death of differentiated SHSY-5Y cells [3]: effective at preventing cell death; also recorded: prevents gingipain-induced death
NCCCC[C@H](NC(=O)c1ccncc1)C(=O)c1nc2ccccc2s1 [Compound 13, N-[(1S)-5-amino-1-(1,3-benzothiazole-2-carbonyl)pentyl]pyridine-4-carboxamide] | 25 to 50 nM | –
NCCCC[C@H](NC(=O)C1CCCc2ccccc21)C(=O)c1nc2ccccc2s1 (stereo partly drawn) [Compound 31, N-[(1S)-5-amino-1-(1,3-benzothiazole-2-carbonyl)pentyl]tetralin-1-carboxamide] | 10 to 25 nM | –
NCCCC[C@H](NC(=O)C1CCCC1)C(=O)c1nccs1 [Compound 42, N-[(1S)-5-amino-1-(thiazole-2-carbonyl)pentyl]cyclopentanecarboxamide] | 50 to 100 nM | –
CC(=O)N1CCC[C@H](C(=O)N[C@@H](CCCCN)C(=O)c2nc3ccccc3s2)C1 [Compound 8, (3S)-1-acetyl-N-[(1S)-5-amino-1-(1,3-benzothiazole-2-carbonyl)pentyl]piperidine-3-carboxamide] | 10 to 25 nM | –
NCCCC[C@H](NC(=O)C1CCCCC1)C(=O)c1nc2ccccc2s1 [Compound 2, N-[(1S)-5-amino-1-(1,3-benzothiazole-2-carbonyl)pentyl]cyclohexanecarboxamide] | 1 to 10 nM and 10 to 25 nM | IC50 ([1]; Kgp IC50, figure legend): 1 to 10 nM; prevention of gingipain-induced death of differentiated SHSY-5Y cells [3]: effective at preventing cell death; also recorded: more effective
